Experimental data taken from patent US20090172831A1, “Methods for the production of plants resistant to HPPD herbicides” (Syngenta Limited, priority 2000, published 2009).
“And” between values parts separate entries of the source, which are not always exact repeats. Equal values may be shown once. Read-outs that look alike come from different tables or passages of the source.

Legend:
[1] = biological target: T1, Wheat HPPD (Triticum aestivum, UniProt A0A3B6NLC6); assay: Dissociation of enzyme/inhibitor complexes by exchange with 14C-labelled inhibitor (koff; Kd = koff/kon); format: binding
T1 sequence (A0A3B6NLC6 entry or part of it): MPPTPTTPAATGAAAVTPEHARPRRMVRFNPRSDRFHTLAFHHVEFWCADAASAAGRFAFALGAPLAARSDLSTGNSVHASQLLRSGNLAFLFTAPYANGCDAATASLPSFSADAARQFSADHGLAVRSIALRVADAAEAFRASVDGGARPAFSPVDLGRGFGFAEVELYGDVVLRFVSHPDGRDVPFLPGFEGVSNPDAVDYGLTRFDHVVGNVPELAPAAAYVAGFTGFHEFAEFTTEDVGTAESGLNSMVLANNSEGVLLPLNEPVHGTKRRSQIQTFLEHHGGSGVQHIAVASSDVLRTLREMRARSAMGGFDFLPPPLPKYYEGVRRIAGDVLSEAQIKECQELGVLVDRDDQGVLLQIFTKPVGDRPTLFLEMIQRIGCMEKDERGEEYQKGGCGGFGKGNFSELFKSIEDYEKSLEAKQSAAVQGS
From the text: (§1) Herbicidal inhibitors of HPPD are found here to have generally low values of koff (in the range less than 0.0003 s^−1, often less than 0.000001 s^−1). It will be appreciated that many suitable methods known in the art for determining such low koff values are suitable for working the current invention. These include measuring rates of exchange of radio or otherwise labelled inhibitors either with or away from the enzyme inhibitor complex. For example enzyme inhibitor complexes can readily be prepared by incubating HPPD preparations with labelled or unlabelled inhibitor and then, after suitable periods, optionally rapidly separating the thus formed enzyme inhibitor complex from excess inhibitor by any suitable method such as ultrafiltration, binding to filters or exchange down a gel filtration column. Exchange reactions with the, thus prepared enzyme inhibitor complex is then initiated by addition of, as appropriate, excess labelled or unlabelled inhibitor. HPPD preparations suitable for use in the methods of the current invention are relatively unpurified, buffer-exchanged, supernatant fractions of spun crude lysates of E. coli strains engineered to express the HPPD enzyme of interest at a level of, typically, about 0.25-10% of the total soluble protein. Many methods such as radiometric, fluorimetric, NMR, fluorescence depolarisation, EPR, Mossbauer, UV/VIS spectrophotometry etc. or phonon resonance can, in principle, be used to monitor the enzyme/ligand exchange reactions and, particularly in this case where the enzyme contains an iron atom at the ligand binding site. Optionally, the monitoring method may be continuous (as, for example, with scintillation proximity/bead-based methods) or, discontinuous, based upon collection of data at various timepoints wherein samples are removed and the bound and unbound label components rapidly separated and quantitated.
(§2) Values of koff can suitably be calculated by computer fitting based upon is numerical integration of the exchange data along with information on the active-site concentration of HPPD and upon kon values obtained as described below. […] In any event, koff values are always here calculated from the rate of the major slow exchange reaction. It will be appreciated that within the scope of the current invention many methods of making the desired kinetic comparisons are possible without explicit or rigorous determination of off rates but, based upon the same underlying principle, will achieve the same selection result.
The dissociation rates (off rates) of inhibitors selected from Formula 1 and/or 2 and/or 3 and/or 4 from the complexes that they form with test and control HPPD enzymes are suitably measured in a number of ways. Thus, for example, the rates of dissociation of mesotrione, a compound selected from Formula 1 and of the diketonitrile of isoxaflutole, a compound selected from Formula 3 from their respective complexes with, test, wheat HPPD and with, control, Arabidopsis HPPD are compared. The method and results from a typical test are as follows.
^14C mesotrione is of specific activity 1.12 GBq/mmol. This is ˜95% pure radiochemically by TLC and based upon the proportion of material tight-binding to HPPD. Arabidopsis and, (test), wheat HPPD are each diluted to a concentration of ˜0.45 and 0.54 μM, respectively into 1.6 ml of 50 mM Bis-Tris propane buffer at pH 7.0 containing 25% glycerol, 25 mM sodium ascorbate and 3 mg/l of bovine catalase (Sigma C3155˜50,000 units/mg) containing […] ^14C mesotrione and left to react at 25 C for 2.5-3 h. Following this initial binding reaction, exchange reactions are initiated by addition of cold mesotrione to a final concentration of 60 μM and 200 μl aliquots removed at various times to rapid chromatography down a NAP5 gel filtration column equilibrated in 50 mM BTP at pH 7 containing 0.1 M KCl, separation into fractions containing protein-bound or free radiolabel and liquid scintillation counting. […]

[2] = biological target: P. fluorescens HPPD (Pseudomonas fluorescens, UniProt A0ACG8AE61); assay: as above; format: binding
Sequence of P. fluorescens HPPD (A0ACG8AE61 entry or part of it): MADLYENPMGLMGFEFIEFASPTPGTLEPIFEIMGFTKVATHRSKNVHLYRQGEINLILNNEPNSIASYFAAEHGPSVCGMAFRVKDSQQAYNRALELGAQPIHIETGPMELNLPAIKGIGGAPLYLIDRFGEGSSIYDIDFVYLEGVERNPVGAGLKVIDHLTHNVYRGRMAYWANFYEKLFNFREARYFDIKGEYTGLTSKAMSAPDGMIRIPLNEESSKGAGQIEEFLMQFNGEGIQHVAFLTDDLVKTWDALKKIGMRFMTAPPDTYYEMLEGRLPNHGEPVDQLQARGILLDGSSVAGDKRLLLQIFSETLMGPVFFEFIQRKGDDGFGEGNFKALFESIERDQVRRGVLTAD
From the text: as §1
as §2, with “result. […]” for “result.”
Not all test inhibitors are readily available in a radiolabelled form. A more general method of measuring off rates is to first form the complex with unlabelled test inhibitor, to rapidly exchange the complex free of excess unlabelled inhibitor and to then start the exchange reaction by addition of an excess of a standard labelled inhibitor, the kinetic properties of which are already known. The reaction is then monitored and the relative proportions of bound and unbound label determined at various times. […] The latter is the method of choice when the rate of exchange is fast (t½<3 h).
In, variants of the above methods, off rates are measured either in the presence or absence of ˜25% v/v glycerol. In the presence of glycerol values obtained are generally ˜1.5-3× slower than in its absence although sometimes the change is outside this range or, even, in the other direction. Further examples of data obtained are depicted in the following Table 3.
Crude Extracts of recombinant E. coli strains expressing, in the one case, a control HPPD (from Arabidopsis) and, in the other, one or more test HPPD sequences are prepared as described in the preceding example. The titre of active sites and enzyme activity are also defined and measured as described in the preceding examples. […]

[3] = biological target: T1, Wheat HPPD; assay: kon from HPLC enzyme assay (progressive inhibition / timed pre-reaction); format: biochemical; conditions: for observed first order decay rate constant: 100 μM HPP (no inhibitor: 0.016)
Method: Assay buffer is 105 μM (or as appropriate) hydroxyphenylpyruvate (HPP) is freshly made up in 50 mM Bis-Tris-propane buffer at pH 7.0. Dilution buffer is 50 mM Bis-Tris-propane buffer at pH 7.0 containing 25 mM sodium ascorbate and 3.8 mg/l of bovine catalase (Sigma C3155˜50,000 units/mg). HPPD enzyme, freshly unfrozen from storage is kept at ice temperature and diluted, also at ice temperature, to an appropriate concentration in dilution buffer (typically, 2-8 μM) before use. Assays are started by addition of 5 μl of diluted enzyme to 100 μl of assay buffer at 25 C in an eppendorf centrifuge and stopped, at a series of times between 0 and 90 s by addition of 20 μl of 25% perchloric acid and whirlimixing. 80-100 μl of the contents of each eppendorf tube is transferred to an HPLC vial prior to separation by Reverse Phase HPLC. For HPLC, 40 μl is loaded at 1.5 ml/min onto an Aqua C18 5μ 75×4.6 mm column (silica is endcapped) equilibrated with 5.5% acetonitrile, 0.1% trifluoroacetic acid (buffer A) using an HP 1100 HPLC system. The column is eluted, also at 1.5 ml/min, using a 2 minute wash with buffer A, followed by a 2 min wash with a 30/70 mixture of buffer A/100% acetonitrile followed by a further 3.5 minute wash with buffer A (in between uses the column is stored in 65% acetonitrile/water). The elution of HGA (homogentisic acid) and HPP(hydroxyphenylpyruvate) is monitored using a UV flow cell and quantitated via integration of peak absorbance at 292 nm. HGA elutes at around 2 minutes and HPP elutes later. A standard set of concentrations of HGA are used to provide a standard curve in order to calibrate the UV absorbance of the HGA peak versus HGA concentration.
In FIG. 3 assays containing 100 μM HPP substrate were started with addition of wheat HPPD to a final concentration of ˜19 nM and stopped at the times indicated.
In a more direct assay-based method for measuring kon values, test HPPD enzyme is reacted with inhibitor for a range of times and then the inhibition reaction is effectively stopped by addition of a high concentration of the (competitive) substrate HPP. […]

[4] = test system: dicot plants; assay: Herbicidal activity versus dicot plants averaged over 6 or more species; conditions: in vivo
From the text: Activity versus dicot plants refers here to herbicidal activity averaged over a range of 6 or more of those dicot weed and crop species usually used in screens used for compound discovery in the agrochemical community. Herbicidal activity versus dicot plants also refers here to that activity which is due to the inhibitor per se rather than due to some, potentially more herbicidal, metabolite of it which may be formed in planta or otherwise.

[5] = test system: untransformed tobacco explants; assay: Explants on MS agar containing mesotrione, bleaching; format: in vivo; conditions: MS agar + 3% sucrose
From the text: Explants (i.e. a leaf plus short segment of stem containing the auxiliary bud) are placed into MS agar (+3% sucrose) containing various concentrations of mesotrione (see above) from 0.02 to 2 ppm. In tobacco, for example, untransformed explants are fully bleached at 0.02 ppm. […] In these particular experiments, only the shoot that develops from the bud is bleached, the leaf on the explanted tissue remains green.

[6] = Kd, without glycerol, Kd = koff/kon
[7] = dissociation constant (Kd), in water at pH 7.0 and at 25 C
[8] = Kd, value obtained + glycerol (in parentheses)

Structure (SMILES): Cc1nc(C(F)(F)F)ccc1C(=O)C1C(=O)C2CCC(C2)C1=O (stereo not shown) [Structure II]
- ratio Kd2/Kd4, structure II to structure VII [1]: 38
- ratio koff2/koff4, structure II to structure VII [1]: 30 and 42
- Kd [1, 6]: 6.73 nM
- Kd [1, 7]: 6.5 to 7.5 nM
- koff ([1]; in water at pH 7.0 and at 25 C, values of Table 3 restated): 0.00035 s⁻¹
- koff ([1]; pH 7, in water at pH 7.0 and at 25 C, values of Table 3 restated): 0.00025 s⁻¹
- koff ([1]; − glycerol): 0.00025 s⁻¹ and 0.00035 s⁻¹
- Kd ([2]; without glycerol, Kd = koff/kon, read-out: Kd): 2.17 nM
- koff ([2]; − glycerol): 5e-05 s⁻¹
- kon [3]: 48000 to 57200 M⁻¹ s⁻¹
- observed first order decay rate constant ([3]; 2.5 μM inhibitor): 0.029 s⁻¹
- observed first order decay rate constant ([3]; 10 μM inhibitor): 0.06 s⁻¹
- herbicidal activity versus dicot plants relative to mesotrione [4]: at least a quarter of the herbicidal activity of mesotrione

Structure (SMILES): CS(=O)(=O)c1ccc(C(=O)C2C(=O)CCCC2=O)c([N+](=O)[O-])c1 [Structure I, 2-(Nitro-4-methanesulphonylbenzoyl)-cyclohexane-1,3-dione, reference compound]
- Kd [1, 8]: 6.33 nM
- Kd [1, 6]: 7.41 nM
- Kd [1, 7]: 6.5 to 7.5 nM
- Kd [2, 8]: 0.2 nM
- Kd [2, 6]: 0.114 nM
- concentration at which explants are fully bleached [5]: 0.02 ppm
